Results taken from patent US20230117831A1, “MULTI-FUNCTIONAL CHIMERIC MOLECULES” (THE BROAD INSTITUTE, INC., priority 2020, published 2023).
pKd: −log10 of the molar value. Blank lines part the entries; values can stand above or below the compound they belong to.

Experiments:
[1] = target: PKCα (Homo sapiens, UniProt P17252); assay: ADP-Glo kinase activation, CREBtide peptide; assay type: biochemical; design: GST; purchased SignalChem P61-18G
Method: ADP-Glo assay was performed with PHICS (PKC) in a similar manner with some modifications as follows. In a 96 well plate (white, flat bottom), similar concentration series of PHICS (2.1, 2.2, 2.3, 2.4 and 2.5) were prepared using same kinase assay buffer and incubated with 2 ng of PKC, 0.2 μg/μL CREBtide peptide and 50 μM ATP for 1 hr at room temperature before incubation with ADP-Glo assay reagents.

[2] = target: FGFR1 (Homo sapiens, UniProt P11362); conditions: cited from earlier work
FGFR1, sequence (P11362 22-822, species assumed): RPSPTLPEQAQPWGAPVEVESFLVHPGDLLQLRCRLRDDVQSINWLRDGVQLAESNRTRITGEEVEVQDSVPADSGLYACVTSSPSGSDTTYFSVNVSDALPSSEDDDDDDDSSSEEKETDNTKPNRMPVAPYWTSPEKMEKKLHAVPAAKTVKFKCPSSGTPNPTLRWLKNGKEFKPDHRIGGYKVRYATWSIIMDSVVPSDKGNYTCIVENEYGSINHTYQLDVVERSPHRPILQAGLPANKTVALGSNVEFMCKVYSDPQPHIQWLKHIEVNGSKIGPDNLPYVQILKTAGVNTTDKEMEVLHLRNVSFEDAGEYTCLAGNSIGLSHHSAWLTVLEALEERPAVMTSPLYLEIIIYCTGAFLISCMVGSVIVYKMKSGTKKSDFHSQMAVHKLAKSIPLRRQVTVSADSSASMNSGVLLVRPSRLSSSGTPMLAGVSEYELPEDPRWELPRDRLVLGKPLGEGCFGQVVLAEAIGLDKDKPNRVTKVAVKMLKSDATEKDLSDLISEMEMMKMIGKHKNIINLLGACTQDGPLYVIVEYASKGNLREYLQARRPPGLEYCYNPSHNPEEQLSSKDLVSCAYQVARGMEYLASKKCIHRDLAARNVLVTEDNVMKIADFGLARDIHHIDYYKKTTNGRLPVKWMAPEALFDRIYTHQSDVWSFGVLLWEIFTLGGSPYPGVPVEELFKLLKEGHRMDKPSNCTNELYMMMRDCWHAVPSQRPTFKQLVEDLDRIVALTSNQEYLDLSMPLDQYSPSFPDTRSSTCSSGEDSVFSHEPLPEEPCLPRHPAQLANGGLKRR

[3] = target: TIE2 (Homo sapiens, UniProt Q02763); conditions: cited from earlier work
TIE2, sequence (Q02763 23-1124, species assumed): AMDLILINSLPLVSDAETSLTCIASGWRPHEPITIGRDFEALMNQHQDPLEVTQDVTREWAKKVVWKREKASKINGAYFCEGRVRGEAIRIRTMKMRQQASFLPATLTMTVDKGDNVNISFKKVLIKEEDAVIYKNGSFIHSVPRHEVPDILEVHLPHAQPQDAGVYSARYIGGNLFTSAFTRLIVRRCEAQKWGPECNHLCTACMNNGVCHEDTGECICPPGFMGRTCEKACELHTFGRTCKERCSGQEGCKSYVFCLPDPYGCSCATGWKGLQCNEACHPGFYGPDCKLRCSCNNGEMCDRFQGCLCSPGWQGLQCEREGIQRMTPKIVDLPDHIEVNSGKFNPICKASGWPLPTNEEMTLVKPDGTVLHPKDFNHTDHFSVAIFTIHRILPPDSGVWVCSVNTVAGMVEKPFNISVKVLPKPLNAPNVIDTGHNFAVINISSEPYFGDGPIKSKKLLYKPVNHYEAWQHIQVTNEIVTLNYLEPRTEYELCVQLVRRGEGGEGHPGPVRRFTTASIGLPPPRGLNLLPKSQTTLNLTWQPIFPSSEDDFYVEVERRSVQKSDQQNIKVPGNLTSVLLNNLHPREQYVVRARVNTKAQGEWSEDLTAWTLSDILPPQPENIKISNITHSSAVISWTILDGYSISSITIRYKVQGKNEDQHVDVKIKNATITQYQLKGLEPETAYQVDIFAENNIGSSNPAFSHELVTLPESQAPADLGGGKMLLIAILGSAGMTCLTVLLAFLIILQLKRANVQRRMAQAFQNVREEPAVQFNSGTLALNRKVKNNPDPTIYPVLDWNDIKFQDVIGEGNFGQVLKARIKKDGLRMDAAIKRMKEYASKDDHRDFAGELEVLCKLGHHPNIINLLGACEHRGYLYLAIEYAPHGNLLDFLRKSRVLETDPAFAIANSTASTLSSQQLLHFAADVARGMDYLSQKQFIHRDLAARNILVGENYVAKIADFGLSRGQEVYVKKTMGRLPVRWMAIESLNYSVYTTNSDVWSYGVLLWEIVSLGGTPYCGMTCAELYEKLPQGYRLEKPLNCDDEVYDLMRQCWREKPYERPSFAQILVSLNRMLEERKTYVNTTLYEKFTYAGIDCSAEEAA

[4] = target: T1, DDR2 (Homo sapiens, UniProt Q16832); conditions: cited from earlier work
T1 sequence (Q16832 22-855): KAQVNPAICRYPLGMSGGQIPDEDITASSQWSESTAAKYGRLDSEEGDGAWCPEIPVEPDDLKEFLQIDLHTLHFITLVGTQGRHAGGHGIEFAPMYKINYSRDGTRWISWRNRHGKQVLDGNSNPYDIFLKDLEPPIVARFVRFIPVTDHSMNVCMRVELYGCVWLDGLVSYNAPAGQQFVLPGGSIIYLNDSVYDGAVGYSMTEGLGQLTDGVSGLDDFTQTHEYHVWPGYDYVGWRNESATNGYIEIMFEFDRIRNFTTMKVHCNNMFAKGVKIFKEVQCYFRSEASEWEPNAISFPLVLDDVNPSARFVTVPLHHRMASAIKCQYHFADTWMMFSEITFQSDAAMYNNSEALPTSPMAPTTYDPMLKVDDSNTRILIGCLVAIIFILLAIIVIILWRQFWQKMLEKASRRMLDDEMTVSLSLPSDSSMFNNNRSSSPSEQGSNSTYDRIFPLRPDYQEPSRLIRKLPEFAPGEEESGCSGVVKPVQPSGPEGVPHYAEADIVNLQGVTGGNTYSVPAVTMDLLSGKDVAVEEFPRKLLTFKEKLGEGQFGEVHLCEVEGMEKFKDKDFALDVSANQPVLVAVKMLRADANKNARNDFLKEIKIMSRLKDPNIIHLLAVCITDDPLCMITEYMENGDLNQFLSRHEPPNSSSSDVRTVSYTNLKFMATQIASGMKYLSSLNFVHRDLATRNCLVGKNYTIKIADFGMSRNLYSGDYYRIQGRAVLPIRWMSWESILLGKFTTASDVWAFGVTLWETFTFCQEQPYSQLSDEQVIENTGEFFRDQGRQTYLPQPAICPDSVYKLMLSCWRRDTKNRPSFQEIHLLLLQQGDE

[5] = target: LYN [isoform a] (Homo sapiens, UniProt P07948); conditions: cited from earlier work
LYN [isoform a], sequence (P07948 whole entry, canonical isoform): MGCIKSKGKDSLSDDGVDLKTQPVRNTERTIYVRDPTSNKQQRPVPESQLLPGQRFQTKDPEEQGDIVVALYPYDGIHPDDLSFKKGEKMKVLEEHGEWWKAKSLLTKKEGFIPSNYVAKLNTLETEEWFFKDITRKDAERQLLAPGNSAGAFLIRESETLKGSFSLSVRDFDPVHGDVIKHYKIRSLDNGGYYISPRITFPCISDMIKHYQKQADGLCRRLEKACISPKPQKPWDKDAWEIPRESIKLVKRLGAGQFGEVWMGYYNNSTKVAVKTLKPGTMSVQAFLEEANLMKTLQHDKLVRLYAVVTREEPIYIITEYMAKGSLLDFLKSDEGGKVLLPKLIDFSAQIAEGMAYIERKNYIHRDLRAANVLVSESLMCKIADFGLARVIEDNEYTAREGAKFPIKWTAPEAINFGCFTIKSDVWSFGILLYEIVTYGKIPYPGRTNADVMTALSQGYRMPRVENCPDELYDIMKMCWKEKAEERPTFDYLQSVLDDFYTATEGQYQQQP

[6] = target: FYN [isoform a] (Homo sapiens, UniProt P06241); conditions: cited from earlier work
FYN [isoform a], sequence (P06241 whole entry, canonical isoform): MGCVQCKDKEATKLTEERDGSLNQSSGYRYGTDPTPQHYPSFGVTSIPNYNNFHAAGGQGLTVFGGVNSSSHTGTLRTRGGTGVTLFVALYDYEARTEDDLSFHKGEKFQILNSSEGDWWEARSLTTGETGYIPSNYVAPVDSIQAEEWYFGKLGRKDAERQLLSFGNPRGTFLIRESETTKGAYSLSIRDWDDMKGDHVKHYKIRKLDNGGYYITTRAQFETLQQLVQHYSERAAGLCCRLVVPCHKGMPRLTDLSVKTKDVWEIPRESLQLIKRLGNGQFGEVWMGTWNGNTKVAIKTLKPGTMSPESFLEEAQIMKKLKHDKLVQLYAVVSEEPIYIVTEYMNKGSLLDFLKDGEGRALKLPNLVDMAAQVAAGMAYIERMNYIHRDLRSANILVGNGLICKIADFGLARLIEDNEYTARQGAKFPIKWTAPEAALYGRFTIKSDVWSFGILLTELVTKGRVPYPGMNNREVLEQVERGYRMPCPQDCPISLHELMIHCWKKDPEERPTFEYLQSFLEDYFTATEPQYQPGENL

[7] = target: RET (Homo sapiens, UniProt P07949); conditions: cited from earlier work
RET, sequence (P07949 29-1114, species assumed): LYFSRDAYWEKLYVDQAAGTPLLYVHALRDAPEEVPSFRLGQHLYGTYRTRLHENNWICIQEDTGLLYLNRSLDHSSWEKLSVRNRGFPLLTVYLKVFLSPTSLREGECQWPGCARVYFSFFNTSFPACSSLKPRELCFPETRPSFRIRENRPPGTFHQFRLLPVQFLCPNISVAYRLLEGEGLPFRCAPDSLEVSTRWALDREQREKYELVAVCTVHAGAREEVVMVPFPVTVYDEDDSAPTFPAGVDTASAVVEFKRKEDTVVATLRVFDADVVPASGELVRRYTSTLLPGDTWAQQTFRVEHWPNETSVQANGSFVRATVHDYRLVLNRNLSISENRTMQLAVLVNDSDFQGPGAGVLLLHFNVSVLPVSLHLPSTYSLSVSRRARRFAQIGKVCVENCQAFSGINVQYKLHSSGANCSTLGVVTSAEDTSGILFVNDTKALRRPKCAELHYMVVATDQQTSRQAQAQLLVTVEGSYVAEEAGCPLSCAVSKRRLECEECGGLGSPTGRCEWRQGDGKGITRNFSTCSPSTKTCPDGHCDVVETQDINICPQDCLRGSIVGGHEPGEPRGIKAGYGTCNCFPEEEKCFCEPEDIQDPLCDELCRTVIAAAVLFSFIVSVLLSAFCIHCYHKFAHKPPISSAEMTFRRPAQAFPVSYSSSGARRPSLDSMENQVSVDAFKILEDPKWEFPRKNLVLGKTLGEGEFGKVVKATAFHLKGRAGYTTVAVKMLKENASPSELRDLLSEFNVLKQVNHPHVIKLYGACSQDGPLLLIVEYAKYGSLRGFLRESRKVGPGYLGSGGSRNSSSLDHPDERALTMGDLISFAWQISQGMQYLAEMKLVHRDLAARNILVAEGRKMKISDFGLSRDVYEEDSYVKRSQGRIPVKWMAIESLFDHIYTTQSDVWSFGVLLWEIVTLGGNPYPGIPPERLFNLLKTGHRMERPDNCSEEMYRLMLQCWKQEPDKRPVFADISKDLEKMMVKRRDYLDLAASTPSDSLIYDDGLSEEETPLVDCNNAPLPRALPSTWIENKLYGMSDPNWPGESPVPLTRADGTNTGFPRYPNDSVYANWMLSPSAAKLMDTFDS

[8] = target: BTK (Homo sapiens, UniProt Q06187); conditions: cited from earlier work
BTK, sequence (Q06187 whole entry, species assumed): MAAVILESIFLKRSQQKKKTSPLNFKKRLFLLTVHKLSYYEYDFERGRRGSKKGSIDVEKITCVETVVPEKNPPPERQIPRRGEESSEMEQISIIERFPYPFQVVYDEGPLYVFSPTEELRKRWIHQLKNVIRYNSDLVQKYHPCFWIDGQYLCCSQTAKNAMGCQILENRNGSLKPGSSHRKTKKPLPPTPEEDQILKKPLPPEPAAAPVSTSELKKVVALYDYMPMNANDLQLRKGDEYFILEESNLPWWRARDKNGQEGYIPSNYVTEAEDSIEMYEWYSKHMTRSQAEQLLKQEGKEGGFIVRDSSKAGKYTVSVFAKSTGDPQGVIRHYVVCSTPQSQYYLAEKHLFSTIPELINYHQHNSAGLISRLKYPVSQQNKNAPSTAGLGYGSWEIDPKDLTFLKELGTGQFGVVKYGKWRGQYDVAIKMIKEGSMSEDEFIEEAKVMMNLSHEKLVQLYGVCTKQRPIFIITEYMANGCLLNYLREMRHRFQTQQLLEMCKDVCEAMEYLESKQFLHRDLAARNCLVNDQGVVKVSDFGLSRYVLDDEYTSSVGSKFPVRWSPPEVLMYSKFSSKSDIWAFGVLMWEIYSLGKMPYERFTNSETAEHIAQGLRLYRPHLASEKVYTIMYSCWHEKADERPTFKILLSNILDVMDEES

[9] = target: BRAF (Homo sapiens, UniProt P15056); conditions: cited from earlier work
[10] = target: PKC gamma (Homo sapiens, UniProt P05129); conditions: PKC gamma; read-out: Kd; cited from earlier work
[11] = target: T2, PKC epsilon (Homo sapiens, UniProt Q02156); conditions: PKC epsilon; read-out: Kd; cited from earlier work
T2 sequence (Q02156 1-737): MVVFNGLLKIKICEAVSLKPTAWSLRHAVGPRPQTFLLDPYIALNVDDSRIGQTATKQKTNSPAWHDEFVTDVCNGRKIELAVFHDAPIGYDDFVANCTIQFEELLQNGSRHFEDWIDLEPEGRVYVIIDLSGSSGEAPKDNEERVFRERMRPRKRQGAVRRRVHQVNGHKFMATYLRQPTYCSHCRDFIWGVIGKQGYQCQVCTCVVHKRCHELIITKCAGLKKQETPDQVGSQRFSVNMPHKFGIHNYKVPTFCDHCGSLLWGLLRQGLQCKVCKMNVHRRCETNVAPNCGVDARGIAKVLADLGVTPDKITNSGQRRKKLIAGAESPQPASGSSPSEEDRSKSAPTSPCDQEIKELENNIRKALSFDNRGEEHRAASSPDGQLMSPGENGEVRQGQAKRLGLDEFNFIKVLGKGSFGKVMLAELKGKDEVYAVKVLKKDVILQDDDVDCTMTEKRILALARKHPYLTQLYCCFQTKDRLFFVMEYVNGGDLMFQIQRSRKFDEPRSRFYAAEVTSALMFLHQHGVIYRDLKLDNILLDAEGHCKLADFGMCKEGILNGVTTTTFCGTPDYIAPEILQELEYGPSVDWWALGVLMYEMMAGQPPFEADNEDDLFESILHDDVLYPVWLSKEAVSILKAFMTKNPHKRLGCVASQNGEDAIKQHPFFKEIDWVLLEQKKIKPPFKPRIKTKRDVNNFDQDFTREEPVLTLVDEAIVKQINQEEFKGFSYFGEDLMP

[12] = target: PKC beta (Homo sapiens, UniProt P05771); conditions: PKC beta; read-out: Kd; cited from earlier work
[13] = target: PKCalpha (Homo sapiens, UniProt P17252); conditions: PKC alpha; read-out: Kd; cited from earlier work
[14] = test system: breast carcinoma cell lines MCF-7 and MDA-MB-231; conditions: cited from earlier work
[15] = target: PKC delta (Homo sapiens, UniProt Q05655); conditions: PKC delta; read-out: Kd; cited from earlier work
[16] = target: T3, BRD4 and PKC (α-isoform) (Homo sapiens, UniProt O60885+P17252); assay: AlphaScreen ternary complex formation; assay type: binding
T3 construct: BRD4-His tag (BD1 and BD2 (49-460))(31045); purchased BPS Bioscience (BRD4); SignalChem (PKCα) 31045; P61-18G
Method: A similar approach was followed to determine the PHICS2 induced ternary complex formation between PKC: PHICS2: BRD4-GST (BD1 and BD2). Initially, concentration series of PHICS (2.1, 2.2, 2.3, 2.4 and 2.5) with different linkers and (R)-PHICS2.3 with DMSO control were prepared in a white opaque 384-well microplate using a dilution assay buffer with 1% DMSO in the final mixture. Then 10 nM PKC-GST and 100 nM BRD4 (6×His tag) were added to the mixture and incubated at room temperature. Following 1 hr incubation, acceptor beads and donor beads were added to the system.

[17] = target: T4, BRD4 (PKC) (Homo sapiens, UniProt O60885+P17252); assay: ADP-Glo turnover assay, PKC + BRD4-GST; assay type: biochemical; conditions: limiting PKC 50 nM; iPHICS2 as negative control
T4 construct: BRD4-GST (BD1 and BD2 (49-460))(31044); GST; purchased BPS Bioscience (BRD4); SignalChem (PKCα) 31044; P61-18G
Method: The same protocol was followed for PHICS2.3 as well. Initially, 1 μM of PHICS2.3 and (R)-PHICS2.3 were prepared in a 96 well plate (white, flat bottom) using kinase assay buffer and incubated with 50 nM PKC and 700 nM BRD4-GST (BD1 and BD2) for 1 hr at room temperature in the presence of 50 μM ATP before adding ADP-Glo reagents.

[18] = target: T5, BRD4 (PKCα) (Homo sapiens, UniProt O60885+P17252); assay: BRD4 phosphorylation by PKC, western blot; assay type: biochemical
T5 construct: BRD4-GST (BD1 and BD2 (49-460))(31044); GST; purchased BPS Bioscience (BRD4); SignalChem (PKCα) 31044; P61-18G
Method: Kinase reaction was performed using 1 μM PHICS (2.1, 2.2, 2.3, 2.4, 2.5 and (R)-2.3), 50 nM PKC, 700 nM BRD4-GST and 50 μM ATP for 1 hr at room temperature before quenching with SDS loading buffer. Proteins were resolved in NuPAGE 4-12% Bis-Tris protein gels and transferred to a PVDF membrane. After incubation of the membrane with the blocking buffer, phospho-PKC substrate motif [(R/K)XpSX(R/K)] (Cell Signaling, Cat #6967) (1:1000) primary antibody was added to the membrane and further incubated at 4° C. for overnight. HRP-conjugated secondary antibodies or IRDye 800CW/IRDye 680RD secondary antibodies were used to visualize the protein bands.
(§1) Similar approaches were followed to determine the phosphorylation of BRD4 with different AMPK and PKC isoforms as well as phosphorylation of different BRD proteins.

[19] = target: T6, BRD4 (PKCβII) (Homo sapiens, UniProt O60885+P05771); assay: BRD4 phosphorylation by PKC isoform, western blot; assay type: biochemical
T6 construct: BRD4-GST (BD1 and BD2 (49-460))(31044); purchased SignalChem (PKC); BPS Bioscience (BRD4) P63-18G; 31044
Description: as §1

[20] = target: T7, BRD4 (PKCδ) (Homo sapiens, UniProt O60885+Q05655); assay: BRD4 phosphorylation by PKC isoform, western blot; assay type: biochemical
T7 construct: BRD4-GST (BD1 and BD2 (49-460))(31044); purchased SignalChem (PKC); BPS Bioscience (BRD4) P64-18G; 31044
Description: as §1

[21] = target: T8, BRD4 (PKCβI) (Homo sapiens, UniProt O60885+P05771); assay: BRD4 phosphorylation by PKC isoform, western blot; assay type: biochemical
T8 construct: BRD4-GST (BD1 and BD2 (49-460))(31044); purchased SignalChem (PKC); BPS Bioscience (BRD4) P62-18G; 31044
Description: as §1

[22] = target: T9, BRD4 (PKCγ) (Homo sapiens, UniProt O60885+P05129); assay: BRD4 phosphorylation by PKC isoform, western blot; assay type: biochemical
T9 construct: BRD4-GST (BD1 and BD2 (49-460))(31044); purchased SignalChem (PKC); BPS Bioscience (BRD4) P66-18G; 31044
Description: as §1

PKC activation (ADP-Glo) [1]: still activated
SMILES: Cc1sc2c(c1C)C(c1ccc(Cl)cc1)=NC(CC(=O)NCCCCCC(=O)NCc1ccc(COc3ccc4c(c3)N(C)[C@@H](C(C)C)C(=O)N[C@H](CO)C4)cc1)c1nnc(C)n1-2 (stereo partly drawn) [(R)-PHICS2.3]

SMILES: Cc1ccc(C(=O)Nc2ccc(CN3CCN(C)CC3)c(C(F)(F)F)c2)cc1C#Cc1cnc2cccnn12 [Ponatinib]
ka [2]: 17900 M⁻¹ s⁻¹
kd [2]: 0.000119 s⁻¹
log(ka) [2]: 4.25
log(kd) [2]: −3.93
ka [3]: 40200 M⁻¹ s⁻¹
kd [3]: 0.00268 s⁻¹
log(ka) [3]: 4.60
log(kd) [3]: −2.57
ka [4]: 29800 M⁻¹ s⁻¹
kd [4]: 0.00014 s⁻¹
log(ka) [4]: 4.47
log(kd) [4]: −3.85
ka [5]: 110000 M⁻¹ s⁻¹
kd [5]: 5.4e-05 s⁻¹
log(ka) [5]: 5.04
log(kd) [5]: −4.27
ka [6]: 84900 M⁻¹ s⁻¹
kd [6]: 8.93e-05 s⁻¹
log(ka) [6]: 4.93
log(kd) [6]: −4.05
ka [7]: 118000 M⁻¹ s⁻¹
kd [7]: 4.29e-05 s⁻¹
log(ka) [7]: 5.07
log(kd) [7]: −4.37
ka [8]: 21500 M⁻¹ s⁻¹
kd [8]: 0.0168 s⁻¹

SMILES: CC(C)(C)c1nc(-c2cccc(NS(=O)(=O)c3c(F)cccc3F)c2F)c(-c2ccnc(N)n2)s1 [Dabrafenib]
ka [9]: 467000 M⁻¹ s⁻¹
kd [9]: 0.000288 s⁻¹

SMILES: CC(C)[C@H]1C(=O)N[C@H](CO)CCc2c[nH]c3cccc(c23)N1C
pKd [10]: 7.71
pKd [11]: 7.66
pKd [12]: 8.21
pKd [13]: 7.96
antiproliferative activity against breast carcinoma [14]: inactive against breast carcinoma
pKd [15]: 8.09

ternary complex formation (AlphaScreen), BRD4 and PKC [16]: displayed the bell-shaped curve
calculated ADP production [17]: 740 ± 31 nM
BRD4 phosphorylation level [18]: highest BRD4 phosphorylation
BRD4 phosphorylation level [19]: modest phosphorylation
BRD4 phosphorylation level [20]: only minor phosphorylation
BRD4 phosphorylation level [21]: modest phosphorylation
BRD4 phosphorylation level [22]: only minor phosphorylation
SMILES: Cc1sc2c(c1C)C(c1ccc(Cl)cc1)=NC(CC(=O)NCCCCCC(=O)NCc1ccc(COc3ccc4c(c3)N(C)[C@@H](C(C)C)C(=O)N[C@H](CO)C4)cc1)c1nnc(C)n1-2 (stereo partly drawn) [PHICS2.3]
